Assay results: US10450270B2, “Glyoxamide substituted pyrrolamide derivatives and the use thereof as medicaments for the treatment of hepatitis B” (Janssen Sciences Ireland UC, priority 2013, dated 2019)

Experiments:
[1] = system: HBV; assay: Anti-HBV activity, HepG2.117 inducible HBV producing cell line (Tet-off), intracellular HBV DNA by realtime PCR; format: cell-based; conditions: Hepatitis B virus, 72 h; HepG2.117 cells, 3 days of treatment, intracellular HBV DNA; read-out: HepG2 117 EC50
[2] = Cytotoxicity in HepG2 cells, Resazurin viability assay; conditions: human, HepG2 cells

Row | Structure (SMILES) | EC50 [1] [nM] | CC50 at 4 days [2] [nM]
1 | Cc1c(C(=O)C(=O)NC(C)(C)C(F)(F)F)cc(C(=O)Nc2ccc(F)c(C#N)c2)n1C [Compound 58, N-(3-cyano-4-fluoro-phenyl)-1,5-dimethyl-4-[2-oxo-2-[(2,2,2-trifluoro-1,1-dimethyl-ethyl)amino]acetyl]pyrrole-2-carboxamide] | 6 | > 25000
2 | Cn1cc(C(=O)C(=O)NC(C)(C)C)c(F)c1C(=O)Nc1ccc(F)c(C#N)c1 [Compound 34, 4-[2-(tert-butylamino)-2-oxo-acetyl]-N-(3-cyano-4-fluoro-phenyl)-3-fluoro-1-methyl-pyrrole-2-carboxamide] | 9 | > 25000
3 | Cc1c(C(=O)C(=O)NC(C)(C)C)c(F)c(C(=O)Nc2ccc(F)c(C#N)c2)n1C [Compound 36, 4-[2-(tert-butylamino)-2-oxo-acetyl]-N-(3-cyano-4-fluoro-phenyl)-3-fluoro-1,5-dimethyl-pyrrole-2-carboxamide] | < 4 | > 25000
4 | C[C@@H](NC(=O)C(=O)c1c(F)c(C(=O)Nc2ccc(F)c(C#N)c2)n(C)c1Cl)C(F)(F)F [Compound 91, 5-chloro-N-(3-cyano-4-fluoro-phenyl)-3-fluoro-1-methyl-4-[2-oxo-2-[[(1R)-2,2,2-trifluoro-1-methyl-ethyl]amino]acetyl]pyrrole-2-carboxamide] | 300 | > 25000
5 | Cn1c(Br)c(C(=O)C(=O)NC(C)(C)C)c(Cl)c1C(=O)Nc1ccc(F)c(C#N)c1 [Compound 50, 5-bromo-4-[2-(tert-butylamino)-2-oxo-acetyl]-3-chloro-N-(3-cyano-4-fluoro-phenyl)-1-methyl-pyrrole-2-carboxamide] | 4 | > 25000
6 | CC[C@H](C)[C@@H](CO)NC(=O)C(=O)c1cc(C(=O)Nc2ccc(F)c(C#N)c2)n(C)c1C [Compound 69, N-(3-cyano-4-fluoro-phenyl)-4-[2-[[(1S,2S)-1-(hydroxymethyl)-2-methyl-butyl]amino]-2-oxo-acetyl]-1,5-dimethyl-pyrrole-2-carboxamide] | 49 | > 25000
7 | Cc1c(C(=O)C(=O)N[C@H](C)C(C)(F)F)c(Cl)c(C(=O)Nc2ccc(F)c(C#N)c2)n1C [Compound 46, 3-chloro-N-(3-cyano-4-fluoro-phenyl)-4-[2-[[(1R)-2,2-difluoro-1-methyl-propyl]amino]-2-oxo-acetyl]-1,5-dimethyl-pyrrole-2-carboxamide] | 3 | > 25000
8 | Cc1c(C(=O)C(=O)N[C@H]2CCC[C@@H]2O)cc(C(=O)Nc2ccc(F)c(C#N)c2)n1C [Compound 65, N-(3-cyano-4-fluoro-phenyl)-4-[2-[[(1S,2S)-2-hydroxycyclopentyl]amino]-2-oxo-acetyl]-1,5-dimethyl-pyrrole-2-carboxamide] | 160 | > 25000
9 | Cn1cc(C(=O)C(=O)NC2(C(F)(F)F)CCOC2)c(F)c1C(=O)Nc1ccc(F)c(C#N)c1 (centres unmarked) [Compound 83, N-(3-cyano-4-fluoro-phenyl)-3-fluoro-1-methyl-4-[2-oxo-2-[[3-(trifluoro-methyl)tetrahydrofuran-3-yl]amino]acetyl]pyrrole-2-carboxamide] | 6 | 11800
10 | Cc1c(C(=O)C(=O)NC(C)C(C)(C)O)cc(C(=O)Nc2ccc(F)c(C#N)c2)n1C (centres unmarked) [Compound 72, N-(3-cyano-4-fluoro-phenyl)-4-[2-[(2-hydroxy-1,2-dimethyl-propyl)amino]-2-oxo-acetyl]-1,5-dimethyl-pyrrole-2-carboxamide] | 18 | > 25000
11 | CCCC[C@H](CO)NC(=O)C(=O)c1cc(C(=O)Nc2ccc(F)c(C#N)c2)n(C)c1C [Compound 75, N-(3-cyano-4-fluoro-phenyl)-4-[2-[[(1R)-1-(hydroxymethyl)pentyl]amino]-2-oxo-acetyl]-1,5-dimethyl-pyrrole-2-carboxamide] | 14 | > 25000
12 | C[C@@H](NC(=O)C(=O)c1cc(C(=O)Nc2ccc(F)c(C#N)c2)n(C)c1)C(F)(F)F [Compound 64, N-(3-cyano-4-fluoro-phenyl)-1-methyl-4-[2-oxo-2-[[(1R)-2,2,2-trifluoro-1-methyl-ethyl]amino]acetyl]pyrrole-2-carboxamide] | 66 | > 25000
13 | Cc1c(C(=O)C(=O)NC2(C(F)(F)F)CC2)cc(C(=O)Nc2ccc(F)c(C#N)c2)n1C [Compound 57, N-(3-cyano-4-fluoro-phenyl)-1,5-dimethyl-4-[2-oxo-2-[[1-(trifluoromethyl)-cyclopropyl]amino]acetyl]pyrrole-2-carboxamide] | 6 | > 25000
14 | Cn1c(C(=O)Nc2ccc(F)c(C#N)c2)c(Cl)c(C(=O)C(=O)NC(C)(C)C)c1C1CC1 [Compound 48, 4-[2-(tert-butylamino)-2-oxo-acetyl]-3-chloro-N-(3-cyano-4-fluoro-phenyl)-5-cyclopropyl-1-methyl-pyrrole-2-carboxamide] | 22 | > 25000
15 | Cc1c(C(=O)C(=O)NC(C)(C)C)cc(C(=O)Nc2ccc(F)c(C#N)c2)n1C [Compound 59, 4-[2-(tert-butylamino)-2-oxo-acetyl]-N-(3-cyano-4-fluoro-phenyl)-1,5-dimethyl-pyrrole-2-carboxamide] | 4 | > 25000
16 | Cn1cc(C(=O)C(=O)NC2(C(F)(F)F)CCC2)c(Cl)c1C(=O)Nc1ccc(F)c(C#N)c1 [Compound 39, 3-chloro-N-(3-cyano-4-fluoro-phenyl)-1-methyl-4-[2-oxo-2-[[1-(tri-fluoromethyl)cyclobutyl]amino]acetyl]pyrrole-2-carboxamide] | 6 | > 25000
17 | Cc1c(C(=O)C(=O)NC2(C(F)(F)F)CCC2)c(Cl)c(C(=O)Nc2ccc(F)c(C#N)c2)n1C [Compound 43, 3-chloro-N-(3-cyano-4-fluoro-phenyl)-1,5-dimethyl-4-[2-oxo-2-[[1-(tri-fluoromethyl)cyclobutyl]amino]acetyl]pyrrole-2-carboxamide] | 3 | > 25000
18 | Cc1c(C(=O)C(=O)NC2(C)CCCOC2)cc(C(=O)Nc2ccc(F)c(C#N)c2)n1C (centres unmarked) [Compound 78, N-(3-cyano-4-fluoro-phenyl)-1,5-dimethyl-4-[2-[(3-methyltetrahydropyran-3-yl)amino]-2-oxo-acetyl]pyrrole-2-carboxamide] | 8 | > 25000
19 | Cc1c(C(=O)C(=O)NC2(C)CC(F)(F)C2)c(Cl)c(C(=O)Nc2ccc(F)c(C#N)c2)n1C [Compound 47, 3-chloro-N-(3-cyano-4-fluoro-phenyl)-4-[2-[(3,3-difluoro-1-methyl-cyclo-butyl)amino]-2-oxo-acetyl]-1,5-dimethyl-pyrrole-2-carboxamide] | < 4 | > 25000
20 | CC[C@@H](C)NC(=O)C(=O)c1cc(C(=O)Nc2ccc(F)c(C#N)c2)n(C)c1C [Compound 53, N-(3-cyano-4-fluoro-phenyl)-1,5-dimethyl-4-[2-[[(1R)-1-methylpropyl]-amino]-2-oxo-acetyl]pyrrole-2-carboxamide] | 39 | > 25000
21 | COCC(C)(NC(=O)C(=O)c1cc(C(=O)Nc2ccc(F)c(C#N)c2)n(C)c1C)C(F)(F)F (centres unmarked) [Compound 80, N-(3-cyano-4-fluoro-phenyl)-1,5-dimethyl-4-[2-oxo-2-[[2,2,2-trifluoro-1-(methoxymethyl)-1-methyl-ethyl]amino]acetyl]pyrrole-2-carboxamide] | 7 | > 25000
22 | Cc1c(C(=O)C(=O)NC(C)(CO)C2CC2)cc(C(=O)Nc2ccc(F)c(C#N)c2)n1C (centres unmarked) [Compound 77, N-(3-cyano-4-fluoro-phenyl)-4-[2-[(1-cyclopropyl-2-hydroxy-1-methyl-ethyl)amino]-2-oxo-acetyl]-1,5-dimethyl-pyrrole-2-carboxamide] | 12 | > 25000
23 | Cn1c(Cl)c(C(=O)C(=O)NC2(C(F)(F)F)CCC2)c(F)c1C(=O)Nc1ccc(F)c(C#N)c1 [Compound 90, 5-chloro-N-(3-cyano-4-fluoro-phenyl)-3-fluoro-1-methyl-4-[2-oxo-2-[[1-(trifluoromethyl)cyclobutyl]amino]acetyl]pyrrole-2-carboxamide] | 32 | > 25000
24 | Cc1c(C(=O)C(=O)N[C@H]2[C@H](C)CC[C@H]2O)cc(C(=O)Nc2ccc(F)c(C#N)c2)n1C [Compound 66, N-(3-cyano-4-fluoro-phenyl)-4-[2-[[(1S,2R,5R)-2-hydroxy-5-methyl-cyclopentyl]amino]-2-oxo-acetyl]-1,5-dimethyl-pyrrole-2-carboxamide] | 110 | > 25000
25 | Cn1c(C(=O)Nc2ccc(F)c(C#N)c2)c(Cl)c(C(=O)C(=O)NC(C)(C)C)c1C(F)(F)F [Compound 33, 4-[2-(tert-butylamino)-2-oxo-acetyl]-3-chloro-N-(3-cyano-4-fluoro-phenyl)-1-methyl-5-(trifluoromethyl)pyrrole-2-carboxamide] | 247 | > 25000
26 | Cc1c(C(=O)C(=O)NC(C)C)c(Cl)c(C(=O)Nc2ccc(F)c(C#N)c2)n1C [Compound 45, 3-chloro-N-(3-cyano-4-fluoro-phenyl)-4-[2-(isopropylamino)-2-oxo-acetyl]-1,5-dimethyl-pyrrole-2-carboxamide] | 6 | > 25000
27 | Cc1c(C(=O)C(=O)NC2(CO)COC2)cc(C(=O)Nc2ccc(F)c(C#N)c2)n1C [Compound 71, N-(3-cyano-4-fluoro-phenyl)-4-[2-[[3-(hydroxymethyl)oxetan-3-yl]amino]-2-oxo-acetyl]-1,5-dimethyl-pyrrole-2-carboxamide] | 24 | > 25000
28 | Cc1c(C(=O)C(=O)NC2(C)COC2)c(Cl)c(C(=O)Nc2ccc(F)c(C#N)c2)n1C [Compound 44, 3-chloro-N-(3-cyano-4-fluoro-phenyl)-1,5-dimethyl-4-[2-[(3-methyloxetan-3-yl)amino]-2-oxo-acetyl]pyrrole-2-carboxamide] | 3 | > 25000
